Data taken from US4647687A, “Halogenated sulphides, process for their preparation and their use in microbicidal agents” (Bayer Aktiengesellschaft, priority 1983, dated 1987).
In brackets after ≈: the same amount, converted by molar mass. Read-outs that look alike come from different tables or passages of the source.

How the values were obtained:
[1] = tested on: slime organisms; test: Action against slime organisms (MIC in Allen's nutrient solution); format: cell-based; settings: 336 h, about 10^6 germs/ml, 3 weeks at room temperature
[2] = tested on: Eschercihia coli; test: Action against bacteria (MIC in broth agar); format: cell-based; settings: Escherichia coli, 28° C., 60 to 70% relative humidity, 2 weeks
[3] = tested on: Staphylococcus aureus; test: Action against bacteria (MIC in broth agar); format: cell-based; settings: 28° C., 60 to 70% relative humidity, 2 weeks
[4] = tested on: Aspergillus niger; test: MIC against fungi, beerwort/peptone agar; settings: 28° C., 60 to 70% relative humidity, 2 weeks
[5] = tested on: Chaetomium globosum; test: MIC against fungi, beerwort/peptone agar; settings: 28° C., 60 to 70% relative humidity, 2 weeks
[6] = tested on: Sclerophoma pityophila; test: MIC against fungi, beerwort/peptone agar; settings: 28° C., 60 to 70% relative humidity, 2 weeks
[7] = tested on: microbes (bacteria, yeasts and moulds) isolated from microbially decayed cooling lubricant use dilutions; test: Testing as a preservative for cooling lubricants; settings: 1% active compound in mineral oil cooling lubricant; 5% strength use dilutions contaminated daily for 3 months
Protocol: 1% of the active compound is added, as a preservative, to a cooling lubricant based on mineral oil. 5% strength use dilutions of the cooling lubricant are massively contaminated daily for 3 months with microbes (bacteria, yeasts and moulds) isolated from microbially decayed cooling lubricant use dilutions.

[8] = tested on: Alternaria tenuis; test: MIC against fungi, beerwort/peptone agar; settings: 28° C., 60 to 70% relative humidity, 2 weeks
[9] = tested on: Aureobasidium pullulans; test: MIC against fungi, beerwort/peptone agar
[10] = tested on: Coniophora puteana; test: MIC against fungi, beerwort/peptone agar; settings: 28° C., 60 to 70% relative humidity, 2 weeks
[11] = tested on: Lentinus tigrinus; test: MIC against fungi, beerwort/peptone agar; settings: 28° C., 60 to 70% relative humidity, 2 weeks
[12] = tested on: Penicillium glaucum; test: MIC against fungi, beerwort/peptone agar; settings: 28° C., 60 to 70% relative humidity, 2 weeks
[13] = tested on: Polyporus versicolor; test: MIC against fungi, beerwort/peptone agar
[14] = tested on: Trichoderma viride; test: MIC against fungi, beerwort/peptone agar
[15] = 28° C., 60 to 70% relative humidity, 2 weeks

Structure (SMILES) | MIC [1] [µg/mL] | MIC ([2]; 336 h, read-out: MIC) [µg/mL] | MIC ([3]; 336 h, read-out: MIC) [µg/mL] | MIC ([4]; 336 h) [µg/mL] | MIC ([5]; 336 h) [µg/mL] | MIC ([6]; Sydowia polyspora, 336 h) [µg/mL] | MIC ([9]; 336 h) [µg/mL] | MIC ([11]; 336 h) [µg/mL] | MIC ([12]; Penicillium, 336 h) [µg/mL] | MIC ([13]; Trametes versicolor, 336 h) [µg/mL] | MIC ([14]; 336 h) [µg/mL] | MIC [8] [µg/mL] | MIC [10] [µg/mL] | MIC [12] [µg/mL] | further results
N#CC=C(Cl)SCCC#N [Example 1, 1-chloro-2-cyanovinyl 2-cyano-ethyl sulphide] | 0.15 (≈ 0.869 µM) | – | – | – | – | – | – | – | – | – | – | – | – | – | –
N#CCCSC(Cl)=C(Cl)C#N [Example 2, 1,2-dichloro-2-cyano-vinyl 2-cyano-ethyl sulphide] | 2 (≈ 9.66 µM) | 200 (≈ 966 µM) | 35 (≈ 169 µM) | < 20 | < 20 | 20 (≈ 96.6 µM) | – | – | – | – | – | – | – | – | –
N#CC(Cl)=CSC(Cl)=C(Cl)C#N [Example 5, 1,2-dichloro-2-cyano-vinyl 2-chloro-2-cyano-vinyl sulphide] | 0.35 (≈ 1.46 µM) | 20 (≈ 83.5 µM) | 10 (≈ 41.8 µM) | 2 (≈ 8.35 µM) | 2 (≈ 8.35 µM) | 0.5 (≈ 2.09 µM) | 5 (≈ 20.9 µM) | 0.5 (≈ 2.09 µM) | 1 (≈ 4.18 µM) | 1 (≈ 4.18 µM) | 10 (≈ 41.8 µM) | – | – | – | state of the use dilutions at the end of the testing period [7]: free from germs; MIC ([8]; Alternaria alternata, 336 h): 20 µg/mL (≈ 83.5 µM); MIC ([10]; 336 h): < 0.1 µg/mL
N#CC(Cl)=C(Cl)SC(Cl)=C(Cl)C#N [Example 8, bis-(1,2-dichloro-2-cyano-vinyl) sulphide] | – | 50 (≈ 183 µM) | < 20 | 2 (≈ 7.3 µM) | 2 (≈ 7.3 µM) | 0.5 (≈ 1.83 µM) | 1 (≈ 3.65 µM) | 0.5 (≈ 1.83 µM) | – | 1 (≈ 3.65 µM) | 10 (≈ 36.5 µM) | 2 (≈ 7.3 µM) | < 0.1 | 1 (≈ 3.65 µM) | –

More lines, main results first:

MIC [1] [µg/mL] | MIC ([2]; 336 h, read-out: MIC) [µg/mL] | MIC ([3]; 336 h, read-out: MIC) [µg/mL] | MIC ([4]; 336 h) [µg/mL] | MIC ([5]; 336 h) [µg/mL] | MIC ([6]; Sydowia polyspora, 336 h) [µg/mL] | MIC ([9]; 336 h) [µg/mL] | MIC ([11]; 336 h) [µg/mL] | MIC ([12]; Penicillium, 336 h) [µg/mL] | MIC ([13]; Trametes versicolor, 336 h) [µg/mL] | MIC ([14]; 336 h) [µg/mL] | MIC [8] [µg/mL] | MIC [10] [µg/mL] | MIC [12] [µg/mL] | Structure (SMILES) | further results
– | – | – | – | – | – | – | – | – | – | – | 0.75 (≈ 2.74 µM) | 0.5 (≈ 1.83 µM) | 2.5 (≈ 9.13 µM) | N#CC(Cl)=C(Cl)SC(Cl)=C(Cl)C#N [Example 9, bis-(1,2-dichloro-2-cyano-vinyl) sulphide] | MIC [2]: 25 µg/mL (≈ 91.3 µM); MIC [3]: 10 µg/mL (≈ 36.5 µM); MIC [4]: 2.5 µg/mL (≈ 9.13 µM); MIC [9, 15]: 1 µg/mL (≈ 3.65 µM); MIC [5]: 2.5 µg/mL (≈ 9.13 µM); MIC [11]: 1 µg/mL (≈ 3.65 µM); MIC ([13]; Polyporus versicolor, 28° C., 60 to 70% relative humidity, 2 weeks): 1 µg/mL (≈ 3.65 µM); MIC [6]: 0.75 µg/mL (≈ 2.74 µM); MIC [14, 15]: 10 µg/mL (≈ 36.5 µM)
– | 200 (≈ 878 µM) | 500 (≈ 2200 µM) | 50 (≈ 220 µM) | 50 (≈ 220 µM) | – | – | – | 35 (≈ 154 µM) | – | – | – | – | – | N#CC(Cl)=CS(=O)(=O)c1ccccc1 [α-Chloro-β-phenylsulphonyl-acrylonitrile, α-Chloro-β-phenylsulphonyl acrylonitrile, reference compound] | –
